target: human PDE4D catalytic domain (Homo sapiens (Human), UniProt Q08499); assay: PDE4 Assay (TR-FRET, FAM-cAMP cleavage); type: biochemical; settings: Table 17, Examples 297-316; read-out: PDE4 IC50 range
Method in brief: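 PDE4D catalytic domain (S380-L740) incubated briefly with unlabelled cAMP plus FAM-cAMP and titrated compound. Reaction stopped with binding buffer holding metal-ion nanoparticles that bind AMP phospho groups and Tb donor, and AMP formation read by TR-FRET. IC50 versus controls, reported as ranges (nM).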

Chain of human PDE4D catalytic domain (Q08499 380-740): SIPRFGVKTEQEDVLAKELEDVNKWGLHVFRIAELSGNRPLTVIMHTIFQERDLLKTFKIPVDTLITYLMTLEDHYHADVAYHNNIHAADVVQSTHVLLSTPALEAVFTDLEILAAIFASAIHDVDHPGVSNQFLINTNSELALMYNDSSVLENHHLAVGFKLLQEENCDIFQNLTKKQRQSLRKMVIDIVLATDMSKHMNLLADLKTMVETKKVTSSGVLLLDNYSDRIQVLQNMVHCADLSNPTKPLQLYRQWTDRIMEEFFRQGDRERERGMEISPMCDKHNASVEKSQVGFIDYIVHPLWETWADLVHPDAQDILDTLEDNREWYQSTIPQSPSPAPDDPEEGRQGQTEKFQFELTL

Row | Compound | IC50 [nM]
1 | CCn1nc(CC(C)(C)COC(=O)c2cncs2)c2c1C(=O)NCC1(CCOCC1)C2 [Example 306, [3-(1-ethyl-8-oxo-spiro[6,7-dihydro-4H-pyrazolo[3,4-c]azepine-5,4′-tetrahydro-pyran]-3-yl)-2,2-dimethyl-propyl] thiazole-5-carboxylate] | < 100
2 | CCn1nc(CC(C)(C)COC(=O)c2cc(C)nc(C)c2)c2c1C(=O)NCC1(CCOCC1)C2 [Example 313, [3-(1-ethyl-8-oxo-spiro[6,7-dihydro-4H-pyrazolo[3,4-c]azepine-5,4′-tetrahydropyran]-3-yl)-2,2-dimethyl-propyl] 2,6-dimethylpyridine-4-carboxylate] | < 100

same assay, conditions: human PDE4D catalytic domain (UniProt Q08499 [S380-L740]); 50% inhibition of substrate cleavage; read-out: PDE4 IC50 range

Row | Compound | IC50 [nM]
3 | CCc1ccc(C(=O)OC[C@H](C)Cc2nn(CC)c3c2CC2(CCOCC2)CNC3=O)cc1 [Example 148, [(2R)-3-(1-ethyl-8-oxo-spiro[6,7-dihydro-4H-pyrazolo[3,4-c]azepine-5,4′-tetrahydropyran]-3-yl)-2-methyl-propyl] 4-ethylbenzoate] | < 100
4 | CCn1nc(C[C@@H](C)COC(=O)c2cccc(C(N)=O)c2)c2c1C(=O)NCC1(CCOCC1)C2 [Example 178, [(2R)-3-(1-ethyl-8-oxo-spiro[6,7-dihydro-4H-pyrazolo[3,4-c]azepine-5,4′-tetrahydropyran]-3-yl)-2-methyl-propyl] 3-carbamoylbenzoate] | < 100
5 | CCn1nc(CCCOC(=O)c2ccc(S(=O)(=O)N3CCN(C(C)=O)CC3)cc2)c2c1C(=O)NCC1(CCOCC1)C2 [Example 102, 3-(1-ethyl-8-oxo-spiro[6,7-dihydro-4H-pyrazolo[3,4-c]azepine-5,4′-tetrahydropyran]-3-yl)propyl 4-(4-acetylpiperazin-1-yl)sulfonylbenzoate] | < 100
6 | CCn1nc(CCCOC(=O)C2CCCC2)c2c1C(=O)NCC1(CCOCC1)C2 [Example 5, 3-(1-ethyl-8-oxo-spiro[6,7-dihydro-4H-pyrazolo[3,4-c]azepine-5,4′-tetrahydropyran]-3-yl)propyl cyclopentanecarboxylate] | < 100
7 | CCc1nc(C(=O)OCCCc2nn(CC)c3c2CC2(CCOCC2)CNC3=O)cs1 [Example 260, 3-(1-ethyl-8-oxo-spiro[6,7-dihydro-4H-pyrazolo[3,4-c]azepine-5,4′-tetrahydropyran]-3-yl)propyl 2-ethylthiazole-4-carboxylate] | < 100
8 | CCn1nc(CCCOC(=O)c2cccc(F)c2F)c2c1C(=O)NCC1(CCOCC1)C2 [Example 24, 3-(1-ethyl-8-oxo-spiro[6,7-dihydro-4H-pyrazolo[3,4-c]azepine-5,4′-tetrahydropyran]-3-yl)propyl 2,3-difluorobenzoate] | < 100
9 | CCn1nc(CC(C)(C)COC(=O)c2cccc(F)c2)c2c1C(=O)NCC1(CCOCC1)C2 [Example 191, [3-(1-ethyl-8-oxo-spiro[6,7-dihydro-4H-pyrazolo[3,4-c]azepine-5,4′-tetrahydropyran]-3-yl)-2,2-dimethyl-propyl] 3-fluorobenzoate] | < 100
10 | CCn1nc(C[C@@H](C)COC(=O)c2ccc(S(=O)(=O)CC)cc2)c2c1C(=O)NCC1(CCOCC1)C2 [Example 157, [(2R)-3-(1-ethyl-8-oxo-spiro[6,7-dihydro-4H-pyrazolo[3,4-c]azepine-5,4′-tetrahydropyran]-3-yl)-2-methyl-propyl] 4-ethylsulfonylbenzoate] | < 100
11 | CCn1nc(CCOC(=O)C2CCOCC2)c2c1C(=O)NCC1(CCOCC1)C2 [Example 276, 2-(1-ethyl-8-oxo-spiro[6,7-dihydro-4H-pyrazolo[3,4-c]azepine-5,4′-tetrahydropyran]-3-yl)ethyl tetrahydropyran-4-carboxylate] | 100 to 500
12 | CCn1nc(C[C@@H](C)COC(=O)c2ccc(OC)cc2)c2c1C(=O)NCC1(CCOCC1)C2 [Example 149, [(2R)-3-(1-ethyl-8-oxo-spiro[6,7-dihydro-4H-pyrazolo[3,4-c]azepine-5,4′-tetrahydropyran]-3-yl)-2-methyl-propyl] 4-methoxybenzoate] | < 100
13 | CCn1nc(CCCOC(=O)c2cccc(F)c2)c2c1C(=O)NCC1(CCOCC1)C2 [Example 9, 3-(1-ethyl-8-oxo-spiro[6,7-dihydro-4H-pyrazolo[3,4-c]azepine-5,4′-tetrahydropyran]-3-yl)propyl 3-fluorobenzoate] | < 100
14 | CCn1nc(CCCOC(=O)c2ccc(C)cc2C)c2c1C(=O)NCC1(CCOCC1)C2 [Example 14, 3-(1-ethyl-8-oxo-spiro[6,7-dihydro-4H-pyrazolo[3,4-c]azepine-5,4′-tetrahydropyran]-3-yl)propyl 2,4-dimethylbenzoate] | < 100
15 | CCn1nc(CCCOC(=O)c2cscn2)c2c1C(=O)NCC1(CCOCC1)C2 [Example 244, 3-(1-ethyl-8-oxo-spiro[6,7-dihydro-4H-pyrazolo[3,4-c]azepine-5,4′-tetrahydropyran]-3-yl)propyl thiazole-4-carboxylate] | < 100
16 | CCc1ccc(C(=O)OCCCc2nn(CC)c3c2CC2(CCOCC2)CNC3=O)cc1 [Example 15, 3-(1-ethyl-8-oxo-spiro[6,7-dihydro-4H-pyrazolo[3,4-c]azepine-5,4′-tetrahydropyran]-3-yl)propyl 4-ethylbenzoate] | < 100
17 | CCn1nc(CCCCOC(=O)c2ccc(C(=O)N3CCOCC3)cc2)c2c1C(=O)NCC1(CCOCC1)C2 [Example 133, 4-(1-ethyl-8-oxo-spiro[6,7-dihydro-4H-pyrazolo[3,4-c]azepine-5,4′-tetrahydropyran]-3-yl)butyl 4-(morpholine-4-carbonyl)benzoate] | < 100
18 | CCn1nc(CCCOC(=O)c2cccc(S(=O)(=O)N3CCOCC3)c2)c2c1C(=O)NCC1(CCOCC1)C2 [Example 99, 3-(1-ethyl-8-oxo-spiro[6,7-dihydro-4H-pyrazolo[3,4-c]azepine-5,4′-tetrahydropyran]-3-yl)propyl 3-morpholinosulfonylbenzoate] | < 100
19 | CCn1nc(CCCOC(=O)c2coc(C)n2)c2c1C(=O)NCC1(CCOCC1)C2 [Example 240, 3-(1-ethyl-8-oxo-spiro[6,7-dihydro-4H-pyrazolo[3,4-c]azepine-5,4′-tetrahydropyran]-3-yl)propyl 2-methyloxazole-4-carboxylate] | < 100
20 | CCn1nc(C[C@@H](C)COC(=O)c2ccc(F)cc2)c2c1C(=O)NCC1(CCOCC1)C2 [Example 145, [(2R)-3-(1-ethyl-8-oxo-spiro[6,7-dihydro-4H-pyrazolo[3,4-c]azepine-5,4′-tetrahydropyran]-3-yl)-2-methyl-propyl] 4-fluorobenzoate] | < 100
21 | CCn1nc(C[C@@H](C)COC(=O)c2cccc(C(=O)N3CCN(C)CC3)c2)c2c1C(=O)NCC1(CCOCC1)C2 [Example 184, [(2R)-3-(1-ethyl-8-oxo-spiro[6,7-dihydro-4H-pyrazolo[3,4-c]azepine-5,4′-tetrahydropyran]-3-yl)-2-methyl-propyl] 3-(4-methylpiperazine-1-carbonyl)benzoate] | < 100
22 | CCn1nc(CCCCOC(=O)c2ccc(C(=O)NC)cc2)c2c1C(=O)NCC1(CCOCC1)C2 [Example 128, 4-(1-ethyl-8-oxo-spiro[6,7-dihydro-4H-pyrazolo[3,4-c]azepine-5,4′-tetrahydropyran]-3-yl)butyl 4-(methyl-carbamoyl)benzoate] | < 100
23 | CCC(CC)C(=O)OCCCc1nn(CC)c2c1CC1(CCOCC1)CNC2=O [Example 6, 3-(1-ethyl-8-oxo-spiro[6,7-dihydro-4H-pyrazolo[3,4-c]azepine-5,4′-tetrahydropyran]-3-yl)propyl 2-ethylbutanoate] | < 100

Source: patent US10793580B2, “Substituted pyrazoloazepin-8-ones and their use as phosphodiesterase inhibitors” (LEO Pharma A/S, priority 2016, dated 2020)
